Patent publication US11691947B2, “Isoindoline compositions and methods for treating neurodegenerative disease” (priority 2014, dated 2023)
“Also recorded” adds a separate entry of the source.

Columns and labels:
[1] = test system: MDA-MB-435 or MDA-MB231 or SKOV-3 cells; assay: MTS tumor cell viability assay (agonist/antagonist activity of sigma-2 ligands); format: cell-based
Method: The cytotoxicity of test compounds is determined using the CellTiter96 Aqueous One Solution Assay (Promega, Madison, Wis.). Briefly, MDA-MB-435 or MDA-MB231 or SKOV-3 cells were seeded in a 96-well plate at a density of 2000 cells/well on the day prior to treatment with sigma-2 receptor selective ligands. After a 24 hour treatment, the CellTiter 96 AQueous One Solution Reagent is added to each well, and the plate incubated for 2 hours at 37° C. The plate is read at 490 nm in a Victor3 plate reader (PerkinElmer Life and Analytical Sciences, Shelton, Conn.). The EC^50 value, defined as the concentration of the sigma ligand required to inhibit cell viability by 50% relative to untreated cells, is determined from the dose response curve for each cell line. Siramesine is accepted as an agonist.

[2] = test system: neuronal cultures; assay: Nuclear intensity/morphology in neuronal cultures treated with sigma compounds; format: cell-based; settings: 24 hours treatment, compared to vehicle
Method: Neuronal cultures are treated with various concentrations of sigma compounds for 24 hours and nuclear intensity compared to vehicle is measured. […] Isoindoline test compounds of the present disclosure are analyzed in this assay to help determine neuronal phenotype, results are shown in Table 2.

[3] = test system: caspase-3; settings: cited from earlier work; for caspase-3 activation: tumor cells and neurons, WO2013/029060 FIGS. 10A and 10B
[4] = test system: Abeta 42 oligomer-induced synapse loss in primary neurons; assay: Abeta oligomer-induced synapse loss assay; format: cell-based
Method: The number of synapses can also be quantified in this assay by immunofluorochemistry.
Primary hippocampal neuronal culture is established as in the membrane trafficking assay above. […] Pretreatment with test compounds for 1 hr and addition of Abeta oligomers or no oligomer (vehicle alone) is followed by incubation for an additional 23 hrs.
The plates are then washed 3× with PBS for 5 min each. The plates are blocked at RT for 1 hr in 5% goat serum and 0.5% Triton X-100 in PBS. Primary antibodies (anti-MAP 2 polyclonal, Millipore #AB5622 and anti-Beta Amyloid 6E10 monoclonal, Covance #SIG-39300, at 1 microgram/ml, and rabbit polyclonal anti-synaptophysin, Anaspec, at 0.2 microgram/ml) were diluted 1:1000 in 5% goat serum with PBS. Primary antibodies are incubated overnight at 4° C. The plates are then washed 3× with PBS for 5 min each. Secondary antibodies (Alex Flor 488 polyclonal, Invitrogen #A11008 and Alexa Flor 647 monoclonal, Invitrogen #A21235) are diluted 1:1000 in 5% goat serum with PBS. Secondary antibodies are incubated at RT for 1 hr. The plates are washed once with PBS. DAPI (4′,6-diamidino-2-phenylindole, Invitrogen) is then applied at 0.03 ug/ul and incubated at RT for 5 min, then washed with PBS.

Structure (SMILES) | Action [1] | nuclear morphology / nuclear intensity in neurons [2] | caspase-3 activation [3] | elimination of Abeta 42 oligomer-induced synapse loss [4] | block of caspase-3 activation by agonist SV-119 in neurons ([3]; neurons, WO2013/029060 FIG. 10B) | inhibition of caspase-3 activation in tumor cells ([3]; tumor cells, WO2013/029060 FIG. 10A) | recovery of synapse loss [4] [%]
Fc1ccc(-n2cc(CCCCN3CCC4(CC3)OCc3ccccc34)c3ccccc32)cc1 [Siramesine] | Full agonist | cause significant abnormal nuclear morphology in neurons | activate caspase-3 in tumor cells and neurons; also recorded: induces caspase-3 activity |  |  |  | 
O=C(CCCN1CCC(O)(c2ccc(Cl)cc2)CC1)c1ccc(F)cc1 [haloperidol] |  |  |  | completely eliminated synapse loss |  |  | 
COc1ccc(C)cc1NC(=O)OC1C[C@H]2CCC[C@@H](C1)N2CCCCCCN (stereo partly drawn) [SV-119] | Full agonist | cause significant abnormal nuclear morphology in neurons | activate caspase-3 in tumor cells and neurons |  |  |  | 
COc1cc2c(cc1OC)CN(CCCCNC(=O)c1cc(C)ccc1OC)CC2 [RHM-1, N-[4-(3,4-dihydro-6,7-dimethoxyisoquinolin-2(1H)-yl)butyl]-2-methoxy-5-methylbenzamide] | Antagonist | do not decrease nuclear intensity | do not induce caspase-3 activity |  | not able to block activation | inhibits the activation in tumor cells | 
CCCN(CCC)CCc1ccc(OC)c(OCCc2ccccc2)c1 [NE-100] |  |  |  | completely eliminated synapse loss |  |  | 
CCC(Oc1ccc(Cl)cc1)C(=O)OC1CC2CCC(C1)N2C (stereo not drawn) [SM-21] |  |  |  | only weakly active in eliminating synapse loss |  |  | 20
